Read-outs that look alike come from different tables or passages of the source.
Test: Microsolubility estimate by repeated addition of vehicle
Format: physicochemical
Conditions: thermodynamic from solid, read-out: Microsolubility
Protocol: (§1) For CETP inhibitors where quantities were limited, an estimate of solubility was obtained by addition of vehicle to a known quantity of the compound and mixing in an ultrasonicator bath for 90 minutes, followed by overnight equilibration at ambient temperature. Addition of vehicle was repeated until a solution was achieved.
as §1, with “limited or the samples were amorphous solids,” for “limited,”, “achieved. From the total volume of vehicle added to solubilize the CETP inhibitor compound, the solubility value, or so-called microsolubility, was calculated by the equation: Weight of sample (mgA)/vehicle volume (mL)=Microsolubility (mgA/mL)” for “achieved.”

Solubility (Capmul MCM, oil or lipid): > 300 mg/mL | Solubility (Cotton oil, oil or lipid): < 75 mg/mL | Solubility (Crodamol GTCC, oil or lipid): < 75 mg/mL | Solubility (Glycerin, organic solvent or mixture): < 75 mg/mL | Solubility (Incromega TG2671, oil or lipid): < 75 mg/mL | Solubility (Linoleic acid, oil or lipid): < 60 mg/mL | Solubility (Miglyol 810, oil or lipid): < 100 mg/mL | Solubility (Miglyol 812, oil or lipid): > 300 mg/mL | Solubility (Olive oil, oil or lipid): > 300 mg/mL | Solubility (Safflower oil, oil or lipid): > 300 mg/mL | Solubility (mineral oil, oil or lipid): < 75 mg/mL | Solubility (oil or lipid): < 75 mg/mL | Solubility (propylene glycol, organic solvent or mixture): < 75 mg/mL
Structure (SMILES): CCOC(=O)N1c2ccc(C(F)(F)F)cc2[C@@H](N(Cc2cc(C(F)(F)F)cc(C(F)(F)F)c2)C(=O)OC)C[C@H]1CC [Compound A, [2R,4S] 4-[(3,5-bis-trifluoromethyl-benzyl)-methoxycarbonyl-amino]-2-ethyl-6-trifluoromethyl-3,4-dihydro-2H-quinoline-1-carboxylic acid ethyl ester]
